From PubChem BioAssay AID330 (DTP/NCI, 2004)
“And” between values parts separate entries of the source, which are not always exact repeats. Equal entries are not always repeated. Toxic doses and inconclusive results are not listed. Peptide text beside a SMILES is read from it. * marks the point of attachment. Cbz = O=C(OCc1ccccc1)*; OBn = c1ccc(CO*)cc1

Test system: P388 leukemia ip, CD2F1 mice, survival T/C
Assay: NCI In Vivo Anticancer Drug Screen. Data for tumor model P388 Leukemia (intraperitoneal) in CD2F1 (CDF1) mice
Conditions: endpoint: median survival time, higher = longer survival
Summary of the method: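 Mice carrying the transplanted tumor received test compound or vehicle. Survival was recorded in each group, and the value is the treated-group measurement divided by that of the vehicle-treated control group.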

[1] = dose: 50.0 mg/kg/injection, schedule: Q01DX005 (ip), vehicle: Klucel (hydroxypropylcellulose) (HPC)
[2] = dose: 100.0 mg/kg/injection, schedule: Q01DX005 (ip), vehicle: Klucel (hydroxypropylcellulose) (HPC)
[3] = dose: 200.0 mg/kg/injection, schedule: Q01DX005 (ip), vehicle: Klucel (hydroxypropylcellulose) (HPC)
[4] = dose: 100.0 mg/kg/injection, schedule: Q01DX009 (ip), vehicle: saline with Tween-80
[5] = dose: 200.0 mg/kg/injection, schedule: Q01DX009 (ip), vehicle: saline with Tween-80
[6] = dose: 60.0 mg/kg/injection, schedule: Q01DX005 (ip), vehicle: saline with Tween-80
[7] = dose: 120.0 mg/kg/injection, schedule: Q01DX005 (ip), vehicle: saline with Tween-80
[8] = dose: 25.0 mg/kg/injection, schedule: Q01DX009 (ip), vehicle: water
[9] = dose: 50.0 mg/kg/injection, schedule: Q01DX009 (ip), vehicle: water
[10] = dose: 100.0 mg/kg/injection, schedule: Q01DX009 (ip), vehicle: water
[11] = dose: 200.0 mg/kg/injection, schedule: Q01DX009 (ip), vehicle: water
[12] = dose: 50.0 mg/kg/injection, schedule: Q01DX005 (ip), vehicle: saline with Tween-80
[13] = dose: 50.0 mg/kg/injection, schedule: Q01DX009 (ip), vehicle: saline with Tween-80

With C=CCC12C[C@H](OC)[C@@H](O)[C@](OC)(C1O)[C@H](c1ccc3c(c1)OCO3)[C@H]2C (some centres not stated) the T/C (dose: 16.25 mg/kg/injection, schedule: Q01DX005 (ip), vehicle: Klucel (hydroxypropylcellulose) (HPC)) was 108 % of control, the T/C (dose: 32.5 mg/kg/injection, schedule: Q01DX005 (ip), vehicle: Klucel (hydroxypropylcellulose) (HPC)) was 98 % of control and the T/C (dose: 65.0 mg/kg/injection, schedule: Q01DX005 (ip), vehicle: Klucel (hydroxypropylcellulose) (HPC)) was 99 % of control. The T/C (dose: 130.0 mg/kg/injection, schedule: Q01DX005 (ip), vehicle: Klucel (hydroxypropylcellulose) (HPC)) was 89 % of control.

For NCCCCC(NC(=O)OCc1ccccc1)C(=O)NC(CCCCN)C(=O)NC(CCCCN)C(=O)NC(Cc1c[nH]c2ccccc12)C(=O)OCc1ccccc1 (configuration not stated) (Cbz-KKKW-OBn; configuration not given here), the T/C [1] was 100 % of control, the T/C [2] was 96 % of control and the T/C [3] was 100 % of control.

With CN1C(=O)c2ccccc2N(C)C12CCN(Cc1ccccc1)CC2 the T/C (dose: 50.0 mg/kg/injection, schedule: Q01DX005 (ip), vehicle: distilled water + alcohol) was 103 % of control, the T/C (dose: 100.0 mg/kg/injection, schedule: Q01DX005 (ip), vehicle: distilled water + alcohol) was 100 % of control and the T/C (dose: 200.0 mg/kg/injection, schedule: Q01DX005 (ip), vehicle: distilled water + alcohol) was 97 % of control.

Nc1nc(N)c2nc(/C(Cl)=N/O)cnc2n1 was tested, and the T/C (dose: 20.0 mg/kg/injection, schedule: Q01DX009 (ip), vehicle: saline) was 108 % of control, the T/C (dose: 40.0 mg/kg/injection, schedule: Q01DX009 (ip), vehicle: saline) was 105 % of control and the T/C (dose: 80.0 mg/kg/injection, schedule: Q01DX009 (ip), vehicle: saline) was 103 % of control.

Nc1cc(N)cc(C(=O)c2ccccc2)c1 was tested, and the T/C [4] was 95 % of control, the T/C [5] was 95 % of control and the T/C (dose: 400.0 mg/kg/injection, schedule: Q01DX009 (ip), vehicle: saline with Tween-80) was 90 % of control.

For CC(C)CC(NC(c1ccccc1)P(=O)(O)O)C(=O)O (configuration not stated), the T/C [6] was 100 % of control, the T/C [7] was 96 % of control and the T/C (dose: 240.0 mg/kg/injection, schedule: Q01DX005 (ip), vehicle: saline with Tween-80) was 91 % of control.

With O=NNc1ccc(Oc2ccc(NN=O)cc2)cc1 the T/C (dose: 3.12 mg/kg/injection, schedule: Q01DX009 (ip), vehicle: water) was 96 % of control, the T/C (dose: 6.25 mg/kg/injection, schedule: Q01DX009 (ip), vehicle: water) was 96 % of control and the T/C (dose: 12.5 mg/kg/injection, schedule: Q01DX009 (ip), vehicle: water) was 92 % of control. For the same compound, the T/C [8] was 100 % of control and 93 % of control, the T/C [9] was 100 % of control and 93 % of control and the T/C [10] was 91 % of control. For the same compound, the T/C [11] was 88 % of control.

With Cc1cc(=O)n(Nc2ccccc2)c(O)c1C#N the T/C (dose: 50.0 mg/kg/injection, schedule: Q01DX009 (ip), vehicle: Klucel (hydroxypropylcellulose) (HPC)) was 100 % of control, the T/C (dose: 100.0 mg/kg/injection, schedule: Q01DX009 (ip), vehicle: Klucel (hydroxypropylcellulose) (HPC)) was 94 % of control and the T/C (dose: 200.0 mg/kg/injection, schedule: Q01DX009 (ip), vehicle: Klucel (hydroxypropylcellulose) (HPC)) was 100 % of control.

In the case of O=S1(=O)N=C(N2CCOCC2)c2ccccc21, the T/C [12] is reported as 101 % of control, the T/C (dose: 100.0 mg/kg/injection, schedule: Q01DX005 (ip), vehicle: saline with Tween-80) is reported as 101 % of control and the T/C (dose: 200.0 mg/kg/injection, schedule: Q01DX005 (ip), vehicle: saline with Tween-80) is reported as 99 % of control.

For CCCCCCCCCCCCCCCCNC(=S)N=Nc1cc(C(C)C)c(NNC(=S)NCCCCCCCCCCCCCCCC)cc1C, the T/C [1] was 92 % of control, the T/C [2] was 99 % of control and the T/C [3] was 97 % of control.

For O=C(Nc1ccc(C2=NCCCN2)cc1)Nc1cccc(C(=O)Nc2ccc(C3=NCCCN3)cc2)c1, the T/C (dose: 1.5 mg/kg/injection, schedule: Q01DX009 (ip), vehicle: saline with Tween-80) was 100 % of control, the T/C (dose: 3.0 mg/kg/injection, schedule: Q01DX009 (ip), vehicle: saline with Tween-80) was 109 % of control and the T/C (dose: 12.5 mg/kg/injection, schedule: Q04DX003 (ip), vehicle: saline with Tween-80) was 104 % of control. For the same compound, the T/C (dose: 16.5 mg/kg/injection, schedule: Q01DX009 (ip), vehicle: saline with Tween-80) was 163 % of control, the T/C (dose: 25.0 mg/kg/injection, schedule: Q04DX003 (ip), vehicle: saline with Tween-80) was 118 % of control and the T/C [13] was 90 % of control. The T/C (dose: 50.0 mg/kg/injection, schedule: Q04DX003 (ip), vehicle: saline with Tween-80) was 118 % of control.

For CC1=CCC2C(C)(C)CCCC2(C)C1COC1OC(OCC2C(C)=CCC3C(C)(C)CCCC23C)C2C1=CCC1C(C)(C)CCCC21C (configuration not stated), the T/C (dose: 15.0 mg/kg/injection, schedule: Q01DX009 (ip), vehicle: Klucel (hydroxypropylcellulose) (HPC)) was 96 % of control, the T/C (dose: 30.0 mg/kg/injection, schedule: Q01DX009 (ip), vehicle: Klucel (hydroxypropylcellulose) (HPC)) was 102 % of control and the T/C (dose: 60.0 mg/kg/injection, schedule: Q01DX009 (ip), vehicle: Klucel (hydroxypropylcellulose) (HPC)) was 93 % of control. For the same compound, the T/C (dose: 120.0 mg/kg/injection, schedule: Q01DX009 (ip), vehicle: Klucel (hydroxypropylcellulose) (HPC)) was 94 % of control.

For CC1=CC(C)=NC(N)=NN1, the T/C [8] was 99 % of control, the T/C [9] was 108 % of control and the T/C [10] was 103 % of control. For the same compound, the T/C [11] was 119 % of control.

With CNC(=S)N/N=C(\c1ccccc1)c1ccccn1 the T/C (dose: 50.0 mg/kg/injection, schedule: Q01DX009 (ip), vehicle: saline) was 100 % of control, the T/C (dose: 50.0 mg/kg/injection, schedule: Q01DX009 (ip), vehicle: suspension in saline) was 100 % of control and 105 % of control and the T/C (dose: 100.0 mg/kg/injection, schedule: Q01DX009 (ip), vehicle: saline) was 102 % of control. For the same compound, the T/C (dose: 100.0 mg/kg/injection, schedule: Q01DX009 (ip), vehicle: suspension in saline) was 103 % of control and 90 % of control, the T/C (dose: 200.0 mg/kg/injection, schedule: Q01DX009 (ip), vehicle: saline) was 100 % of control and the T/C (dose: 200.0 mg/kg/injection, schedule: Q01DX009 (ip), vehicle: suspension in saline) was 96 % of control and 98 % of control. The T/C (dose: 400.0 mg/kg/injection, schedule: Q01DX009 (ip), vehicle: saline) was 122 % of control and the T/C (dose: 400.0 mg/kg/injection, schedule: Q01DX009 (ip), vehicle: suspension in saline) was 102 % of control and 97 % of control.

CCc1ccc(C(C)(C)C)cc1 was tested, and the T/C (dose: 37.5 mg/kg/injection, schedule: Q01DX009 (ip), vehicle: saline with Tween-80) was 110 % of control, the T/C [13] was 104 % of control and the T/C (dose: 75.0 mg/kg/injection, schedule: Q01DX009 (ip), vehicle: saline with Tween-80) was 111 % of control. For the same compound, the T/C [4] was 109 % of control, the T/C (dose: 132.0 mg/kg/injection, schedule: Q01DX009 (ip), vehicle: saline with Tween-80) was 113 % of control and the T/C (dose: 150.0 mg/kg/injection, schedule: Q01DX009 (ip), vehicle: saline with Tween-80) was 102 % of control.

For Cc1cc(N=Nc2ccncc2C)ccc1N, the T/C (dose: 6.25 mg/kg/injection, schedule: Q01DX009 (ip), vehicle: saline with Tween-80) was 106 % of control, the T/C (dose: 12.5 mg/kg/injection, schedule: Q01DX009 (ip), vehicle: saline with Tween-80) was 104 % of control and the T/C (dose: 25.0 mg/kg/injection, schedule: Q01DX009 (ip), vehicle: saline with Tween-80) was 100 % of control. The T/C [13] was 92 % of control.

With CCCCN(CCCC)C(=O)/C(O)=C(\O)C(=O)N(CCCC)CCCC the T/C (dose: 25.0 mg/kg/injection, schedule: Q01DX005 (ip), vehicle: saline) was 90 % of control, the T/C (dose: 50.0 mg/kg/injection, schedule: Q01DX005 (ip), vehicle: saline) was 96 % of control and the T/C (dose: 100.0 mg/kg/injection, schedule: Q01DX005 (ip), vehicle: saline) was 92 % of control. For the same compound, the T/C (dose: 200.0 mg/kg/injection, schedule: Q01DX005 (ip), vehicle: saline) was 113 % of control.

In the case of CC(=O)[C@H]1C[C@H](O)[C@H]2[C@@H]3CCC4=CC(=O)CC[C@]4(C)[C@H]3C[C@@H](O)[C@@]21C, the T/C [1] is reported as 100 % of control, the T/C [2] is reported as 100 % of control and the T/C [3] is reported as 97 % of control.

For COc1cc(N(C)c2cc(=O)n(C)c(=O)[nH]2)ccc1C, the T/C (dose: 12.5 mg/kg/injection, schedule: Q01DX005 (ip), vehicle: saline with Tween-80) was 101 % of control, the T/C (dose: 25.0 mg/kg/injection, schedule: Q01DX005 (ip), vehicle: saline with Tween-80) was 101 % of control and the T/C [12] was 100 % of control and 94 % of control.

O=C(CN1CCN(c2ccccc2)CC1)n1nnc2ccccc21 was tested, and the T/C [6] was 93 % of control and the T/C [7] was 87 % of control.

With Cn1c(C(C)(C)O)cnc1[N+](=O)[O-] the T/C [13] was 103 % of control and the T/C [5] was 94 % of control.
